Data taken from PubChem BioAssay (NCI).
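How tested: cells in 96-well plates exposed to compound for 48 hours at five concentrations. Here, GI50 denotes the concentration required for 50% inhibition of growth. Definition used: TGI = concentration required for complete inhibition of growth.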

What was measured:
Assay in all cases: NCI anticancer screen, dose series, 48 h
[1] = system: OVCAR-8 ovarian
[2] = system: K-562 leukemia
[3] = system: HOP-62 NSCLC
[4] = system: HOP-92 NSCLC
[5] = system: HCC-2998 colon
[6] = system: HCT-116 colon
[7] = system: U251 CNS
[8] = system: HL-60(TB) leukemia
[9] = system: SF-539 CNS
[10] = system: SK-MEL-5 melanoma

CCOC(=O)C(=O)C1C(=O)Nc2ccccc21 (stereo not given)
TGI [1]: > 100 µM
TGI [2]: > 100 µM
TGI [3]: > 100 µM
TGI [4]: > 100 µM
TGI [5]: > 100 µM
TGI [6]: > 100 µM
TGI [7]: > 100 µM
TGI [8]: > 100 µM

C[N+](C)([O-])CCCNc1c2ccccc2nc2cccc([N+](=O)[O-])c12
TGI [1]: 20.7 µM
TGI [2]: > 100 µM
TGI [3]: 3.23 µM
TGI [9]: 3.88 µM
TGI [4]: 0.806 µM
TGI [5]: 0.393 µM
TGI [6]: 1.02 µM
TGI [7]: 2.24 µM
TGI [8]: 4.22 µM
TGI [10]: 0.327 µM

Cc1cc(=O)c2cc(N=Cc3ccc([N+](=O)[O-])o3)ccc2o1
TGI [2]: > 100 µM
TGI [3]: > 100 µM
TGI [9]: > 100 µM
TGI [4]: > 100 µM
TGI [5]: > 100 µM
TGI [6]: > 100 µM
TGI [7]: > 100 µM
TGI [8]: > 100 µM
TGI [10]: > 100 µM

COc1ccc(-c2nsc3c2NC(=O)CC3c2ccc3c(c2)OCO3)cc1 (stereo not given)
GI50 [1]: 3040 nM
TGI [1]: > 100 µM
GI50 [2]: 408 nM
TGI [2]: > 100 µM
GI50 [3]: 1920 nM
TGI [3]: > 100 µM
GI50 [9]: 1050 nM
TGI [9]: 3.7 µM
GI50 [5]: 1600 nM
TGI [5]: 6.37 µM
GI50 [6]: 574 nM
TGI [6]: > 100 µM
GI50 [8]: 579 nM
TGI [8]: 8.32 µM
GI50 [10]: 1460 nM
TGI [10]: 42.2 µM

O=c1[nH]c(=O)n(C2CC(O)C(CO)O2)cc1C(OCC(F)(F)F)OCC(F)(F)F (stereo not given)
TGI [1]: > 100 µM
TGI [2]: > 100 µM
TGI [3]: > 100 µM
TGI [9]: > 100 µM
TGI [4]: > 100 µM
TGI [5]: > 100 µM
TGI [7]: > 100 µM
TGI [8]: > 100 µM
TGI [10]: > 100 µM

COc1cc2c(c(OC)c1OC)-c1ccc(NNC(=S)N(Cc3cccc(C[N+](Cc4cccc(CNC56CC7CC(CC(C7)C5)C6)c4)(Cc4cccc(CNC56CC7CC(CC(C7)C5)C6)c4)Cc4cccc(CN(C(=S)NNc5ccc6c(cc5=O)[C@@H](NC(C)=O)CCc5cc(OC)c(OC)c(OC)c5-6)C56CC7CC(CC(C7)C5)C6)c4)c3)C34CC5CC(CC(C5)C3)C4)c(=O)cc1[C@@H](NC(C)=O)CC2 (stereo not given in full)
GI50 [1]: 2030 nM
TGI [1]: 7.49 µM
GI50 [3]: 2140 nM
TGI [3]: 7.43 µM
GI50 [9]: 1140 nM
TGI [9]: 4.3 µM
GI50 [4]: 897 nM
TGI [4]: 4.08 µM
GI50 [5]: 635 nM
TGI [5]: 1.47 µM
GI50 [6]: 896 nM
TGI [6]: 3.07 µM
GI50 [8]: 168 nM
TGI [8]: 1.03 µM
GI50 [10]: 810 nM
TGI [10]: 2.25 µM

CC(=O)O[C@H]1CC[C@@]2(C)C(CC[C@]3(C)C2CC[C@]2(C)Oc4c(C)cc(O)cc4C[C@@H]23)C1(C)C (stereo not given in full)
TGI [1]: 23.8 µM
TGI [2]: 29.3 µM
TGI [3]: 30.6 µM
TGI [4]: 18.2 µM
TGI [5]: 22.2 µM
TGI [6]: 18.1 µM
TGI [7]: 7.96 µM
TGI [8]: 14.7 µM
TGI [10]: 18.4 µM

CNc1nc(C)c(-c2nc(Nc3cccc(S(N)(=O)=O)c3)ncc2F)s1
GI50 [1]: 39.4 nM
TGI [1]: 15.9 µM
GI50 [2]: 66.8 nM
TGI [2]: 24.4 µM
GI50 [3]: < 20.1 nM
GI50 [9]: 23.3 nM
TGI [9]: 0.0664 µM
GI50 [5]: 40.8 nM
TGI [5]: 2.48 µM
GI50 [6]: < 16.1 nM
TGI [6]: 12.5 µM
GI50 [7]: 26.8 nM
TGI [7]: 11.5 µM
GI50 [8]: 30.9 nM
TGI [8]: 0.108 µM
GI50 [10]: 29.6 nM
TGI [10]: 0.639 µM

NC1C2C(CC(=O)O)OCC=C3CN4CCC1(C(=O)C(=O)O)C4CC32 (stereo not given)
TGI [1]: > 100 µM
TGI [2]: > 100 µM
TGI [3]: > 100 µM
TGI [9]: > 100 µM
TGI [4]: > 100 µM
TGI [6]: > 100 µM
TGI [7]: > 100 µM
TGI [8]: > 100 µM
TGI [10]: > 100 µM

COc1ccc(C(O)c2cc3c(N)c(C(=O)Nc4cccc(Cl)c4C)sc3nc2C)cc1 (stereo not given)
GI50 [1]: 948 nM
TGI [1]: 2.17 µM
GI50 [2]: 198 nM
TGI [2]: 1.45 µM
GI50 [9]: 818 nM
TGI [9]: 1.54 µM
GI50 [4]: 618 nM
TGI [4]: 1.68 µM
GI50 [5]: 444 nM
TGI [5]: 1.16 µM
GI50 [7]: 797 nM
TGI [7]: 1.57 µM
GI50 [8]: 877 nM
TGI [8]: 2.14 µM
GI50 [10]: 874 nM
TGI [10]: 1.58 µM

C=C1C(=O)O[C@H]2[C@H]1CC/C(CNC(=O)/C=C/c1cccc(OC)c1)=C\CC[C@@]1(C)O[C@@H]21
GI50 [1]: 2190 nM
TGI [1]: 8.07 µM
GI50 [2]: 1310 nM
TGI [2]: 18.6 µM
GI50 [3]: 3170 nM
TGI [3]: 14.8 µM
GI50 [9]: 1270 nM
TGI [9]: 2.98 µM
GI50 [4]: 1030 nM
TGI [4]: 3.38 µM
GI50 [5]: 1830 nM
TGI [5]: 3.31 µM
GI50 [6]: 545 nM
TGI [6]: 1.94 µM
GI50 [7]: 1580 nM
TGI [7]: 3.11 µM
GI50 [10]: 1690 nM
TGI [10]: 3.18 µM

CNS(=O)(=O)NN(C)S(=O)(=O)c1ccc(Cl)cc1
TGI [1]: > 100 µM
TGI [2]: > 100 µM
TGI [3]: > 100 µM
TGI [9]: > 100 µM
TGI [5]: > 100 µM
TGI [6]: > 100 µM
TGI [7]: > 100 µM
TGI [8]: > 100 µM
TGI [10]: > 100 µM

CCOCC(=O)N[C@H]1CCc2cc(OC)c(OC)c(OC)c2-c2ccc(SC)c(=O)cc21
TGI [1]: 4.64 µM
TGI [2]: 12.5 µM
TGI [3]: > 100 µM
TGI [9]: < 0.01 µM
TGI [4]: > 100 µM
TGI [6]: 2.39 µM
TGI [7]: > 76.8 µM
TGI [8]: < 0.0347 µM
TGI [10]: < 0.01 µM

Nc1nc2c(c3ncccc13)C(c1ccc(Cl)c(Cl)c1)Cc1ncccc1-2 (stereo not given)
GI50 [1]: 4240 nM
TGI [1]: 36.5 µM
GI50 [2]: 2670 nM
TGI [2]: 17.3 µM
GI50 [3]: 2960 nM
TGI [3]: 14 µM
GI50 [9]: 2150 nM
TGI [9]: 5.35 µM
GI50 [5]: 5620 nM
TGI [5]: 19.1 µM
GI50 [6]: 3710 nM
TGI [6]: 14.1 µM
GI50 [7]: 3780 nM
TGI [7]: 13.9 µM
GI50 [8]: 3090 nM
TGI [8]: 16.2 µM
GI50 [10]: 3990 nM
TGI [10]: 14.8 µM

ON(CCc1ccncc1)Cc1ccccc1
TGI [1]: > 100 µM
TGI [2]: > 100 µM
TGI [3]: > 100 µM
TGI [9]: > 100 µM
TGI [4]: > 100 µM
TGI [6]: > 100 µM
TGI [10]: > 100 µM

COc1ccc(S(=O)(=O)N/N=C/CN2C(=O)c3ccccc3C2=O)cc1OC
TGI [1]: > 100 µM
TGI [2]: > 100 µM
TGI [3]: > 100 µM
TGI [9]: > 100 µM
TGI [5]: > 100 µM
TGI [6]: > 100 µM
TGI [7]: > 100 µM
TGI [8]: > 100 µM
TGI [10]: > 100 µM

O=C1O[C@H](C(Cl)(Cl)Cl)N2CCCC12 (stereo not given in full)
TGI [1]: > 100 µM
TGI [2]: > 100 µM
TGI [3]: > 100 µM
TGI [9]: > 100 µM
TGI [4]: > 100 µM
TGI [7]: > 100 µM
TGI [8]: > 100 µM
TGI [10]: > 100 µM

N=S(=O)(c1ccccc1)c1ccccc1[N+](=O)[O-] (stereo not given)
TGI [1]: > 100 µM
TGI [2]: > 100 µM
TGI [3]: > 100 µM
TGI [9]: > 100 µM
TGI [5]: > 100 µM
TGI [6]: > 100 µM
TGI [7]: > 100 µM
TGI [8]: > 100 µM
TGI [10]: > 100 µM

CC1CCc2c(sc3ncnc(N/N=C/c4ccc(Cl)c(Cl)c4)c23)C1 (stereo not given)
TGI [1]: 58 µM
TGI [2]: > 100 µM
TGI [3]: > 100 µM
TGI [9]: 60.6 µM
TGI [5]: > 100 µM
TGI [6]: > 100 µM
TGI [7]: 20 µM
TGI [8]: > 100 µM
TGI [10]: 51.3 µM
